# Key:
# [1] = tested on: total number of colonies of the Chinese tube whip shrimps; experiment: Total sterilization effect experiment: total number of colonies (aerobic plate count) of photodynamically treated shrimp in 4° C. storage; assay type: cell-based; settings: 20 μmol/L
# Description: The total sterilization effect experiment and sensory evaluation of the Chinese tube whip shrimps obtained from Application Example 1, Comparative Application Example 1, and Comparative Application Example 2 were carried out. The specific steps are as follows: • (1) the Chinese tube whip shrimps obtained from Application Example 1, Comparative Application Example 1, and Comparative Application Example 2 were put into a fresh-keeping bag of a fresh-keeping box, and stored in a refrigerator at 4° C.; • (2) when stored for 2, 4, 6, 8, and 10 days, according to the method specified in the national standard GB/T 4789.2-2016 Food Microbiological Examination—Aerobic Plate Count, the total number of colonies of the Chinese tube whip shrimps treated in step (1) was measured; and • (3) when stored for 2, 4, 6, 8, and 10 days, a sensory evaluation team conducted sensory scores on the stored shrimps; the sensory score team was composed of 10 strictly trained personnel to evaluate the appearance, odor, and posture of the processed Chinese tube whip shrimps, and the average value was taken. The scoring criteria are shown in Table 1, and the sensory score result is the sum of the 3 indicator scores with a total score of 18 indicating absolute freshness and 9 indicating significant quality deterioration.
# From this, it can be seen that the shelf life of refrigerated Chinese tube whip shrimp in Comparative Application Example 1 and Comparative Application Example 2 is only 4 days.
# [2] = Singlet oxygen generation ability, ABDA absorbance decay method; assay type: physicochemical; settings: 5 μmol/L compound, 50 μmol/L ABDA, aqueous solution, blue LED 470 nm, 20 mW/cm^2, 180 s; FIG. 4
SMILES,"shelf life of refrigerated Chinese tube whip shrimp ([1]; soaking 10 min, blue LED 10 W, 470 nm, 120 s, stored at 4° C., end of shelf life by total number of colonies) [days]","bacterial growth (total number of colonies) ([1]; soaking 10 min, blue LED 10 W, 470 nm, 120 s, stored at 4° C. for 2-10 days, vs Comparative Application Examples 1 and 2, p<0.05, FIG. 6)","freshness level by total number of colonies ([1]; after 10 days of refrigeration at 4° C., blue LED 10 W, 470 nm, 120 s)","freshness level by total number of colonies ([1]; on the 4th day of refrigeration at 4° C., blue LED 10 W, 470 nm, 120 s)","shelf life of fresh shrimp (in words) ([1]; photodynamic treatment of Chinese tube whip shrimp, stored at 4° C.)",singlet oxygen generation ability [2]
"COc1cc(/C=C/C(=O)CC(=O)/C=C/c2ccc(O)c(OC)c2)ccc1O [natural curcumin, curcumin, reference compound]",4,–,–,–,–,–
COc1cc(/C=C/C=C/C(O)=C/C(=O)/C=C/c2ccc(Br)c(OC)c2)ccc1Br [Embodiment 1],–,significantly inhibited,approached second-level freshness,first-level freshness (the shrimp with a total number of colonies of ≤10^5 CFU/g is considered as first-level freshness),significantly prolonged,higher than that of the single bromine substituted curcumin derivative obtained in Embodiment 2
